From PubChem BioAssay AID1963963 (Molecular Pharmacology Branch, DTP, NCI, 2024)
One block for each compound: values may come before it.

System: 958667-338-R-J2-PDC tumor spheroids viability
Experiment: Anticancer human tumor 958667-338-R-J2-PDC patient-derived colon adenocarcinoma cell line growth inhibition [PI3K]
Conditions: spheroids with HUVEC and MSC; for IC50: curve of first compound; for viability, T/C: stronger effect = lower value
Outline: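 Combination activity was assessed by viability in multicellular tumor spheroids carrying HUVEC and MSC components. Agents were tested with PI3K inhibitors from a Cmax-based top dose (or 10 microM) downward in half-log increments.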

[1] = second compound 0.0316 µM, first compound 0.0316 µM
[2] = second compound 0.0316 µM, first compound 0.1 µM
[3] = second compound 0.1 µM, first compound 0.0316 µM
[4] = second compound 0.1 µM, first compound 0.1 µM
[5] = second compound 0.316 µM, first compound 0.0316 µM
[6] = second compound 0.316 µM, first compound 0.1 µM
[7] = second compound 1 µM, first compound 0.0316 µM
[8] = second compound 1 µM, first compound 0.1 µM
[9] = second compound 3.16 µM, first compound 0.0316 µM
[10] = second compound 3.16 µM, first compound 0.1 µM
[11] = second compound 10 µM, first compound 0.0316 µM
[12] = second compound 10 µM, first compound 0.1 µM
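Note: spheroids exposed to compounds for seven days before readout.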

IC50 (second compound 0.0316 µM): > 10 µM
IC50 (second compound 0.1 µM): > 10 µM
IC50 (second compound 0.316 µM): > 10 µM
IC50 (second compound 1 µM): > 10 µM
IC50 (second compound 3.16 µM): > 10 µM
IC50 (second compound 10 µM): > 10 µM
Compound: CC(C)NCC(C(=O)N1CCN(c2ncnc3c2C(C)CC3O)CC1)c1ccc(Cl)cc1 (stereo not given) + CC(Nc1ncnc2nc[nH]c12)c1cc2cccc(Cl)c2c(=O)n1-c1ccccc1
viability, T/C [1]: 81.9%
viability, T/C [2]: 97.3%
viability, T/C (second compound 0.0316 µM, first compound 0.316 µM): 72.1%
viability, T/C (second compound 0.0316 µM, first compound 1 µM): 82%
viability, T/C (second compound 0.0316 µM, first compound 3.16 µM): 89.7%
viability, T/C (second compound 0.0316 µM, first compound 10 µM): 64%
viability, T/C [3]: 102%
viability, T/C [4]: 95.7%
viability, T/C (second compound 0.1 µM, first compound 0.316 µM): 86.5%
viability, T/C (second compound 0.1 µM, first compound 1 µM): 95.7%
viability, T/C (second compound 0.1 µM, first compound 3.16 µM): 92.4%
viability, T/C (second compound 0.1 µM, first compound 10 µM): 68.7%
viability, T/C [5]: 94.7%
viability, T/C [6]: 104%
viability, T/C (second compound 0.316 µM, first compound 0.316 µM): 80%
viability, T/C (second compound 0.316 µM, first compound 1 µM): 94%
viability, T/C (second compound 0.316 µM, first compound 3.16 µM): 83.3%
viability, T/C (second compound 0.316 µM, first compound 10 µM): 70.5%
viability, T/C [7]: 85.9%
viability, T/C [8]: 80.6%
viability, T/C (second compound 1 µM, first compound 0.316 µM): 93.4%
viability, T/C (second compound 1 µM, first compound 1 µM): 101%
viability, T/C (second compound 1 µM, first compound 3.16 µM): 77.8%
viability, T/C (second compound 1 µM, first compound 10 µM): 63.4%
viability, T/C [9]: 77.4%
viability, T/C [10]: 87.5%
viability, T/C (second compound 3.16 µM, first compound 0.316 µM): 102%
viability, T/C (second compound 3.16 µM, first compound 1 µM): 84.2%
viability, T/C (second compound 3.16 µM, first compound 3.16 µM): 80.2%
viability, T/C (second compound 3.16 µM, first compound 10 µM): 64.7%
viability, T/C [11]: 91.2%
viability, T/C [12]: 88.4%
viability, T/C (second compound 10 µM, first compound 0.316 µM): 79.3%
viability, T/C (second compound 10 µM, first compound 1 µM): 83.2%
viability, T/C (second compound 10 µM, first compound 3.16 µM): 81.7%
viability, T/C (second compound 10 µM, first compound 10 µM): 55.2%

IC50 (second compound 0.0316 µM): 0.0749 µM
IC50 (second compound 0.1 µM): 0.0717 µM
IC50 (second compound 0.316 µM): 0.0779 µM
IC50 (second compound 1 µM): 0.0829 µM
IC50 (second compound 3.16 µM): 0.0593 µM
IC50 (second compound 10 µM): 0.0614 µM
Compound: CC(C)n1nc(-c2ccc3oc(N)nc3c2)c2c(N)ncnc21 + CC(Nc1ncnc2nc[nH]c12)c1cc2cccc(Cl)c2c(=O)n1-c1ccccc1
viability, T/C (second compound 0.0316 µM, first compound 0.000316 µM): 96.8%
viability, T/C (second compound 0.0316 µM, first compound 0.001 µM): 95.3%
viability, T/C (second compound 0.0316 µM, first compound 0.00316 µM): 98.5%
viability, T/C (second compound 0.0316 µM, first compound 0.01 µM): 112%
viability, T/C [1]: 73.6%
viability, T/C [2]: 42.1%
viability, T/C (second compound 0.1 µM, first compound 0.000316 µM): 127%
viability, T/C (second compound 0.1 µM, first compound 0.001 µM): 101%
viability, T/C (second compound 0.1 µM, first compound 0.00316 µM): 107%
viability, T/C (second compound 0.1 µM, first compound 0.01 µM): 92.8%
viability, T/C [3]: 74.7%
viability, T/C [4]: 39.4%
viability, T/C (second compound 0.316 µM, first compound 0.000316 µM): 95.2%
viability, T/C (second compound 0.316 µM, first compound 0.001 µM): 84.7%
viability, T/C (second compound 0.316 µM, first compound 0.00316 µM): 90.8%
viability, T/C (second compound 0.316 µM, first compound 0.01 µM): 98.9%
viability, T/C [5]: 69.2%
viability, T/C [6]: 44.7%
viability, T/C (second compound 1 µM, first compound 0.000316 µM): 95.2%
viability, T/C (second compound 1 µM, first compound 0.001 µM): 92.8%
viability, T/C (second compound 1 µM, first compound 0.00316 µM): 82.4%
viability, T/C (second compound 1 µM, first compound 0.01 µM): 100%
viability, T/C [7]: 73.9%
viability, T/C [8]: 45.4%
viability, T/C (second compound 3.16 µM, first compound 0.000316 µM): 86%
viability, T/C (second compound 3.16 µM, first compound 0.001 µM): 91.4%
viability, T/C (second compound 3.16 µM, first compound 0.00316 µM): 98.5%
viability, T/C (second compound 3.16 µM, first compound 0.01 µM): 89.3%
viability, T/C [9]: 60.7%
viability, T/C [10]: 41.2%
viability, T/C (second compound 10 µM, first compound 0.000316 µM): 100%
viability, T/C (second compound 10 µM, first compound 0.001 µM): 75.1%
viability, T/C (second compound 10 µM, first compound 0.00316 µM): 70.4%
viability, T/C (second compound 10 µM, first compound 0.01 µM): 83.5%
viability, T/C [11]: 71.8%
viability, T/C [12]: 33.7%

Compound: Cn1ncc(Cl)c1-c1cc(C(=O)NC(CN)Cc2cccc(F)c2)sc1Cl (stereo not given)
viability, T/C (compound 0.0316 µM): 94.3% [middle of 4 runs]
viability, T/C (compound 0.1 µM): 92.4% [middle of 4 runs]
viability, T/C (compound 0.316 µM): 91.9% [middle of 4 runs]
viability, T/C (compound 1 µM): 74.7% [middle of 4 runs]
viability, T/C (compound 3.16 µM): 53.8% [middle of 4 runs]
viability, T/C (compound 10 µM): 39.3% [middle of 4 runs]
